Measured values taken from patent US20230082311A1, “DRUG FOR CURATIVE THERAPY OF INTRACTABLE HEREDITARY RENAL ALPORT SYNDROME” (NATIONAL UNIVERSITY CORPORATION KUMAMOTO UNIVERSITY, priority 2019, published 2023).
*1 amine or outer side, *2 acyl side, *3 side chain or, on linkers, in order; H or OH if unused. Where a SMILES comes first, the peptide text is derived from it. [ ]: non-standard residue; d: D form. X1 = COCCN1CCN(C[C@H](C)[C@@H](C(=O)[*:2])N(C)[*:1])CC1; MeBmt = C/C=C/C[C@@H](C)[C@@H](O)[C@H](NC)C(=O)O; NMeL = CN[C@@H](CC(C)C)C(=O)O; NMeV = CN[C@H](C(=O)O)C(C)C; dNMeA = CN[C@H](C)C(=O)O; Abu = CC[C@H](N)C(=O)O

Tests used:
calcineurin = conditions: cited from earlier work
[1] = tested on: α345 (COL4A5-G1244D) collagen trimer; test: Type IV collagen α345 trimer assay by Nano luciferase, COL4A5-G1244D stable line; type: cell-based, Human; conditions: for secretion level of collagen trimer as a function of concentration: COL4A5 (G1244D), concentration series up to 10 μM, FIG. 1-3; for collagen trimer secretion (luminescence of culture supernatant, ratio to DMSO-treated group): HEK293T line stably expressing α345 (COL4A5-G1244D), 24 hr treatment
Protocol: (§1) HEK293T cells (Human Embryonic Kidney 293) were obtained from the RIKEN Cell Bank, and thereafter addition of virus concentration solution for COL4A4-3FLAG (Puro), COL4A3-SmBiT (Hyg), COL4A5-LgBiT (BSD) (Omachi K. et al., Cell Chemical Biology 2018, 25, 634-643) in this order, exchange of drug resistance containing medium, passage and preservation of surviving cells were repeated whereby a cell line stably expressing α345 (IV) trimer was generated. COL4A5 variant G1244D was prepared using pLVSIN EF1α BSD COL4A5-LgBiT as a template and using Quikchange (registered trade mark) II Site-directed Mutagenesis Kit (STRATAGENE (registered trade mark)). The primers used were follows. PCR reactions (95° C. for 1 min, one cycle; 95° C. for 50 sec, 60° C. for 50 sec, 68° C. for 90 sec/1 kb, 18 cycles; 68° C. for […]) were performed with each Primer. The base sequence of DNA was confirmed by the cycle sequence method (Sigma-Aldrich JAPAN).
A cell line stably expressing split nano luciferase-fused α345 required for the NanoLuc α345 trimer assay was seeded on LumiNuc 96 well white plate (Thermo). After 24 hr, the cells were cultured in phenol red-free DMEM complete medium containing 2-phosphate ascorbic acid (200 μM), substrates were added to the culture supernatant and cells according to the standard method of NanoGlo live cell assay (Promega) reagent, and luminescence was confirmed with luminometer GloMax Navigator (Promega).
The cell line stably expressing α345 (COL4A5-G1244D) was detached and seeded on LumiNuc 96 well white plate (Thermo) at a density of 2×10^4 cells/well. 24 hr after seeding, the medium was exchanged with a phenol red-free DMEM complete medium containing 2-phosphate ascorbic acid (200 μM) and each concentration of cyclosporin A (CsA) (0.1, 0.5, 1, 2, 5, 10 μM), or each concentration of PSC-833 (0.5, 1, 2, 5, 10 μM), or each concentration of Alisporivir (0.1, 0.5, 5, 10 μM) and the cells were cultured. A substrate was added 24 hr later to the culture supernatant according to the standard method of NanoGlo live cell assay (Promega) reagent, and luminescence (index of trimer secretion) was measured by luminometer GloMax Navigator (Promega). The control solvent (CON) used was dimethyl sulfoxide (DMSO).

[2] = tested on: α3WT/α4WT/α5G1241V collagen trimer (COL4a5/G1241V); type: cell-based, Human
PPIF (cyclophilin D) [3] = target: T1, PPIF (cyclophilin D) (Homo sapiens, UniProt P30405); test: Collagen trimer secreting ability of G1244D HEK293T cells after knock-down of cyclophilins with siRNA; type: cell-based; conditions: G1244D mutant-transfected HEK293T cells, FIG. 9
T1 construct: endogenous in cells; host or cells: HEK293T stably expressing split-NanoLuc alpha345 (COL4A5-G1244D), with or without siRNA knock-down
T1 sequence (P30405 30-207): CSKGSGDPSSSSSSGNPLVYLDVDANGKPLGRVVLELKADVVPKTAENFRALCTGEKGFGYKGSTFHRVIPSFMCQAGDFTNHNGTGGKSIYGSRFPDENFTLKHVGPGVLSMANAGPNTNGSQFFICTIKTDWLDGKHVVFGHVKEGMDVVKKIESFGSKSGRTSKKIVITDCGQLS
Protocol: (§2) An cell line stably expressing split nano luciferase-fused α345 required for the NanoLuc α345 trimer assay was seeded on a 6 well plate (Corning) at 3×10^5 cells/well, and the siRNAs shown in Table 1 were introduced by lipofection at the time of subconfluence. The target genes are all cyclophilins, and the abbreviations in Table 1 indicate the following substances.
Lipofectamine RNAi Max was used for transfection of siRNA. The final siRNA concentration was adjusted to 15 nM, and transfection was performed according to the standard protocol. 24 hr after siRNA introduction, the cells were detached and reseeded on a LumiNuc 96 well white plate (Thermo) at 4×10^4 cells/well. 24 hr thereafter, the medium was exchanged with a phenol red-free DMEM complete medium containing 2-phosphate ascorbic acid (200 μM) and Cyclosporin A (CsA) (1 μM), or Alisporivir (2 μM) and the cells were cultured. Substrates were added 24 hr later to the culture supernatant and cells according to the standard method of NanoGlo live cell assay (Promega) reagent, and luminescence (index of trimer secretion) was measured by luminometer GloMax Navigator (Promega). The control solvent (CON) used was DMSO. […]

PPIF (cyclophilin D) [4] = target: T1, PPIF (cyclophilin D); test: Collagen trimer secretion promotion in G1244D HEK293T cells with cyclophilins knocked down with siRNA; type: cell-based; conditions: siRNA 15 nM against 11 cyclophilins, CsA 1 μM, Alisporivir 2 μM, FIG. 8
Description: To elucidate the mechanism of collagen trimer secretion promotion by CsA and Alisporivir, cells in which cyclophilins to which CsA and Alisporivir can bind were knocked down with siRNA were produced, and the collagen trimer secretion promoting effect by CsA and Alisporivir in the cells was investigated comprehensively.
As the cells, G1244D mutation-introduced HEK293T cells—for which the effect of CsA and Alisporivir were confirmed in previous experiments—were used.
as §2
Lipofectamine RNAi Max was used for transfection of siRNA. The final siRNA concentration was adjusted to 15 nM, and transfection was performed according to the standard protocol. 24 hr after siRNA introduction, the cells were detached and reseeded on a LumiNuc 96 well white plate (Thermo) at 4×10^4 cells/well. […] Substrates were added 24 hr later to the culture supernatant and cells according to the standard method of NanoGlo live cell assay (Promega) reagent, and luminescence (index of trimer secretion) was measured by luminometer GloMax Navigator (Promega). […]

[5] = tested on: α3WT/α4WT/α5WT collagen trimer (COL4a5/WT); test: Type IV collagen α345 trimer assay by Nano luciferase, wild-type COL4A5 stable line; type: cell-based, Human; conditions: wild-type stable cell line, FIG. 5 upper
Protocol: as §1, with “The base sequence of DNA was confirmed by the cycle sequence method (Sigma-Aldrich JAPAN).” left out
A cell line stably expressing split nano luciferase-fused α345 required for the NanoLuc α345 trimer assay was seeded on LumiNuc 96 well white plate (Thermo). After 24 hr, the cells were cultured in phenol red-free DMEM complete medium containing 2-phosphate ascorbic acid (200 μM), substrates were added to the culture supernatant and cells according to the standard method of NanoGlo live cell assay (Promega) reagent, and luminescence was confirmed with luminometer GloMax Navigator (Promega). […]

[6] = clinical trials (Zeuzem 2015; Buti 2015); cited from earlier work
[7] = tested on: COL4A5 AS mutants (G227S, G594D, G624D, G869R, S916G, G1030S, G1107R, G1140V, G1220D, G1241C, G1241V, G1244D, P1517T, R1569Q) and Exon41-deleted variant; type: cell-based, Human; conditions: panel of 14 AS mutants, Exon41-deleted variant and wild type, FIG. 7

Compound: C/C=C/C[C@@H](C)C(=O)[C@H]1C(=O)N[C@@H](C(C)C)C(=O)N(C)CC(=O)N(C)[C@@H](CC(C)C)C(=O)N[C@@H](C(C)C)C(=O)N(C)[C@@H](CC(C)C)C(=O)N[C@@H](C)C(=O)N[C@H](C)C(=O)N(C)[C@@H](CC(C)C)C(=O)N(C)[C@@H](CC(C)C)C(=O)N(C)[C@@H](C(C)C)C(=O)N1C [PSC-833]
- calcineurin inhibition (calcineurin): does not inhibit calcineurin
- secretion level of collagen trimer as a function of concentration [1]: does not increase even when the amount of PSC-833 is increased to 10 μM
- intracellular expression level of collagen trimer ([1]; COL4A5-G1244D line, PSC-833 0.5-10 μM): did not affect
- collagen trimer secretion (luminescence of culture supernatant, ratio to DMSO-treated group) [1]: did not affect collagen trimer secretion

Compound: C/C=C/C[C@@H](C)[C@@H](O)[C@H]1C(=O)N[C@@H](CC)C(=O)N(C)[C@H](C)C(=O)N(C)[C@@H]([C@@H](C)CN2CCN(CCOC)CC2)C(=O)N[C@@H](C(C)C)C(=O)N(C)[C@@H](CC(C)C)C(=O)N[C@@H](C)C(=O)N[C@H](C)C(=O)N(C)[C@@H](CC(C)C)C(=O)N(C)[C@@H](CC(C)C)C(=O)N(C)[C@@H](C(C)C)C(=O)N1C [NIM258] (cyclo(A[dA][NMeL][NMeL][NMeV][MeBmt][Abu][dNMeA][X1]V[NMeL]))
- extracellular secretion of collagen trimer compared with DMSO-administered group ([2]; 5 μM or 10 μM, G1241V cell line per FIG. 6): extracellular secretion of collagen trimers was promoted
- calcineurin inhibition (calcineurin): does not inhibit calcineurin

Compound: siPPIF: siRNA against human PPIF (cyclophilin D), sense GGCAGAUGUCGUCCCAAAG, antisense CUUUGGGACGACAUCUGCC (SEQ ID NO: 27/28) (listed as RNA, chemistry not given here)
- secretion level of collagen trimer, ratio to siGL2-treated group (PPIF (cyclophilin D) [3]): promotion of collagen trimer secretion was confirmed

Compound: C/C=C/C[C@@H](C)[C@@H](O)[C@H]1C(=O)N[C@@H](CC)C(=O)N(C)[C@H](C)C(=O)N(CC)[C@@H](C(C)C)C(=O)N[C@@H](C(C)C)C(=O)N(C)[C@@H](CC(C)C)C(=O)N[C@@H](C)C(=O)N[C@H](C)C(=O)N(C)[C@@H](CC(C)C)C(=O)N(C)[C@@H](CC(C)C)C(=O)N(C)[C@@H](C(C)C)C(=O)N1C [Alisporivir]
- extracellular secretion of collagen trimers, COL4a5/G1241V ([2]; G1241V stable cell line, FIG. 5 lower): promoted extracellular secretion of collagen trimers
- calcineurin inhibition (calcineurin): does not inhibit calcineurin
- effect of promoting the secretion of collagen trimers in cyclophilin knock-down cells (PPIF (cyclophilin D) [4]): decreased only in the cells knocked down with PPIF (cyclophilin D)
- secretion of trimers of COL4a5/WT-containing collagen [5]: did not show an influence on COL4a5/WT
- nephrotoxicity in clinical trials [6]: no nephrotoxicity
- secretion level of collagen trimer as a function of concentration [1]: increases depending on the concentration of Alisporivir
- action of promoting collagen trimer secretion compared with CsA ([1]; COL4A5-G1244D, concentrations of 5 μM and 10 μM, FIG. 4): stronger action of promoting collagen trimer secretion than CsA
- collagen trimer secretion (luminescence of culture supernatant, ratio to DMSO-treated group) [1]: showed an action of promoting collagen trimer secretion
- collagen trimer secretion in COL4A5 variants [7]: exhibited a significant effect in G1030S, G1107R, G1220D, G1241C, G1241V, G1244D, and Exon41-deleted variants
